Experimental data from paper PMC10404669, “Vanillyl alcohol oxidase from Diplodia corticola: Residues Ala420 and Glu466 allow for efficient catalysis of syringyl derivatives” (The Journal of Biological Chemistry, 2023).

Biological target: T1, DcVAO (vanillyl alcohol oxidase) (Diplodia corticola, UniProt A0A1J9QSC2)
T1 construct: gene BKCO1_4900020
Assay: specific activity of purified enzyme, xylenol orange H2O2 assay
Assay type: biochemical

T1 sequence (A0A1J9QSC2 entry or part of it): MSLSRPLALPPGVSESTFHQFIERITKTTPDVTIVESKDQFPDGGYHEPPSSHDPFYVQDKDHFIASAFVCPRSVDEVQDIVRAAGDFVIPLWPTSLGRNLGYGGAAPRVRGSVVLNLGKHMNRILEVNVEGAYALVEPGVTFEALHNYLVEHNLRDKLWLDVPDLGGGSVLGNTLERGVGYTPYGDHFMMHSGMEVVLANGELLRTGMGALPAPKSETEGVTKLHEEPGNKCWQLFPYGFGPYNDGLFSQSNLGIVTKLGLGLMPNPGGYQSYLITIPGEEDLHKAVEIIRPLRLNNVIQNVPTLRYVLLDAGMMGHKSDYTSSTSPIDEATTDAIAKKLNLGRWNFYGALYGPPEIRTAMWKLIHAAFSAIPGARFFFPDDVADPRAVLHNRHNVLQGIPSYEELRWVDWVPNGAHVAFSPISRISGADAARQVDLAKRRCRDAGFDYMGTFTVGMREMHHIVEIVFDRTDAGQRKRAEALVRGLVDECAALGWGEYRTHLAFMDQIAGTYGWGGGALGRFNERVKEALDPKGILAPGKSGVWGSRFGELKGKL

`COc1cc(CO)cc(OC)c1O` [compound 6, 4-(hydroxymethyl)-2,6-dimethoxyphenol] was tested, and the “specific activity of purified enzyme, xylenol orange H2O2 assay” value was 6.3 ± 0.5 U mg^−1.
